Experimental data from patent publication US4695576A, “L-N-n-propylpipecolic acid-2,6-xylidide” (priority 1985, dated 1987).
Entries after “also recorded” stand apart in the source; their conditions may differ. Where two headings read alike, the source gives them in different places.

Legend:
[1] = system: peripheral nerve endings of the epidermis; assay: Intracutaneous wheals, infiltration anesthesia on forearms of man; format: in vivo; conditions: Conc. 0.25%; 12 healthy volunteers, pinprick
Description: By use of intracutaneous wheals it is possible to measure the analgesic effect of an anesthetic on the peripheral nerve endings of the epidermis.
This technique gives information about:
(1) The duration of anesthesia.
^1 Infiltration anesthesia on forearms of man. The test solutions wer
injected intracutaneously on the dorsum of the forearms of 12 healthy
volunteers, 20-25 years old. Three wheals were made on each arm in a
rotating system in a doublebind fashion. The local anesthetic effect was
tested using a pinprick technique. The "duration of anesthesia" was
defined as the time during which none out of six pinpricks into the wheal
was felt. The method has been described by Dhuner et al. (1972). […]

ulnar volar nerves = assay: Finger blockade, digital nerve blocks in man; format: in vivo; conditions: for Time of onset, finger blockade: time from injection to complete analgesia
Procedure: ^2 Digital nerve blocks in man. The test solutions were injected to
block the ulnar volar nerves on the 2nd and 4th fingers of the same
volunteers who had participated in the intracutaneous wheal tests
described above. The tests were carried out in a double blind fashion in
rotating system, so that each solution was used with equal frequency on
each of the blocked fingers. A total of for injections 1.0 ml per
injection, was done in each subject. One week later the procedure was
repeated in the same subjects using the remaining test solutions. This
method has been described by Dhuner et al. (1972) (for citation see Table
2 footnote 1). To measure the efficacy and duration of the blocks, the
individual fingers were pricked rapidly 10 times with a needle algesimete
and the number of painful pricks noted. Each finger was tested every five
minutes until complete recovery. The time of complete anesthesia has been
called "duration of anesthesia".
*i.e. the time from injection to complete analgesia?
**i.e. the number of successful anesthesias of total number of
anesthesias performed (no anesthesia is possible if the ulnar volar nerve
are not contacted by the anesthetic).

skin = assay: Skin temperature measurements within intracutaneous wheals; format: in vivo, man; conditions: for Temperature Difference (T1 wheal vs T2 controls) / T1 Intracutaneous Wheal temperature: Conc. 0.25%, HCl-salt, 10 minutes after injection; for T1 Intracutaneous Wheal temperature: mean of 6 wheals
Procedure: The mean value of 6 wheals for each substance forms the basis for the values. The control values, however, represent the mean value obtained from 4 different sites measured outside the wheals 90 degrees apart and 2 centimeters from the wheal's center.
In the temperature measurements, an Oriel temperature apparatus* has been used. This is battery driven and is connected to a detector (diameter, 2.5 mm) and has an accuracy of ±0.1° C. The temperature of the skin is measured by pressing the detector against the skin with a pressure of 100 grams. It is retained against the skin until a constant temperature is obtained.
In Table 4, T1 is the measurement obtained at the center of the wheal, and T2 is the average of four measurements taken 90 degrees apart outside of the wheal and within 2 centimeters of the wheal's center.

pigs = assay: Intracoronary administration in anesthetized pigs; format: in vivo, pig; conditions: for sudden cardiac collapse: intracoronary
Procedure: Eight pigs weighing around 50 kg were anesthetized with a continuous infusion of pentobarbital at 600 mg/h. Ventilation was established via a tracheotomy with 30% oxygen in nitrogen and normoventilation by a Siemens-Elema Servoventilator 900B. The following catheters were inserted after cutdown: Left ventricular, aortic, pulmonary arterial, great cardiac venous, left anterior descending coronary, arterial and central venous. […] The corresponding doses for bupivaciane were 0.25, 0.5, 1, 2 and 4 mg and for LEA 0.33, 0.66, 1.33, 2.66 and 5.33 mg. The injection rate was adjusted according to the preinjection coronary blood flow. Each series of drug injections was preceded by a placebo infusion. Total hemodynamic and electrocardiographic recovery was allowed between doses and there was a one hour resting period between drugs.
Central pressures, left ventricular dP/dT and a complete chest lead ECG were recorded continuously. Cardiac output and great cardiac venous blood flow were determined before and directly after each dose of the local anesthetic agent.

[2] = molecular target: T1, guinea-pig papillary muscle sodium channels (Cavia porcellus, UniProt H0V4Z8); assay: Action on guinea-pig papillary muscle sodium channels (Vmax, recovery from block); format: cell-based; conditions: for recovery to 90% of drug-blocked channels: -90 mV; for recovery from block: especially at hyperpolarized levels (-100--120 mV); for potency on cardiac sodium channels: equimolar concentrations
T1 construct: Vmax of action potential as measure of sodium current
Description: Depression of cardiac conduction appears to be one of the primary mechanisms underlying local anesthetic cardiotoxicity. Depression of conduction by local anesthetics in both nerve and cardiac tissue results from a block of sodium channels. Furthermore, the degree of sodium channel block by local anesthetics is dependent upon the state of the sodium channel. […] Consequently, a block of sodium channels develops during the upstroke and plateau of the action potential and dissipates during the diastolic interval between beats. Since the effect of a local anesthetic is both state and time dependent, changes in both heart rate and diastolic membrane potential may alter drug action substantially.
(§1) Guinea pig papillary tests were carried out according to the recommendation of the "Report of the Subcommittee on Cardiotoxicity of Local Anesthetics" (Leroy D. Vandam, M.D., chairman). Guinea pig papillary muscle excised from the right ventricle were mounted in a single sucrose gap apparatus (Arlock & Katzune, 1985). Solutions maintained at 37° C.±0.5° continuously perfused the gap compartments. The rear chamber contained isotonic potassium chloride solution. The drugs were added to a Tris-Tyrode solution passing the tip of the muscle. The Tris-Tyrode solution contained (mM): NaCl, 145; KCl, 4; CaCl2, 1.2; MgCl2, 1.05; glucose, 5.5 Tris maleate, 5. It was adjusted to pH 7.4 with trismaleate and HCl before use and gassed with 100% oxygen. Isotonic sucrose solution isolated the rear from the tip to enable current- and voltage-clamping.
The muscles were depolarized with long current pulses (1500 msec). These current steps can induce automaticity or DIA (depolarization induced automaticity). The steps were adjusted so the preparations were depolarized to from -50 to -30 mV since that is in that range that calcium current conductance is initiated.
The results represent the mean from representative experiments. In the absence of drug, Vmax (maximum upstroke velocity of the action potential) recovers from inactivation with an exponential time constant of less that 30 msec at -90 mV (Gettes and Reuter, 1974). […] The time constant of this recovery process is different for channels blocked by different drugs.

[3] = Force of contraction of guinea pig papillary muscle; format: cell-based; conditions: guinea pig, papillary muscle
Procedure: (§2) In order to initiate an investigation without the necessity to involve voltage-clamp of the calcium current, the preparations were subject to long depolarizing induced automaticity. If the cells are depolarized from about -50 to about -30 mV the automaticity is dependent on a transmembrane calcium current.
as §1, with “Guinea pig papillary muscle excised from the right ventricle were mounted in a single sucrose gap apparatus (Arlock & Katzune, 1985).” left out, “The Tris-Tyrode solution contained (mM): NaCl, 145; KCl, 4; CaCl2, 1.2; MgCl2, 1.05; glucose, 5.5 Tris maleate, 5.” left out
(§3) The force of contraction was measured with a strain gauge transducer before and after the addition of the test compounds to the medium. The percent reduction in maximum force of contraction from the control was calculated.

[4] = system: guinea pig papillary muscle; assay: as above; format: cell-based
Procedure: as §2
as §1, with “Guinea pig papillary muscle excised from the right ventricle were mounted in a single sucrose gap apparatus (Arlock & Katzune, 1985).” left out, “The Tris-Tyrode solution contained (mM): NaCl, 145; KCl, 4; CaCl2, 1.2; MgCl2, 1.05; glucose, 5.5 Tris maleate, 5.” left out
as §3

[5] = Anesthetic activity/potency comparison; format: in vivo; conditions: comparison within homologous series
conscious rats = assay: Heart-toxicity in conscious rats (ECG); format: in vivo, Male Sprague Dawley rats; conditions: for potency to induce atrioventricular conduction disturbances: rat, in vivo
Procedure: Male Sprague Dawley rats weighing 290-360 grams were prepared with intravenous catheters under local anesthesia using prilocaine (Citanest*) one hour before experiments. Rapid intravenous bolus injections over 5.0 seconds were given to groups of 8 rats, with a single injection to each animal. […] The ECG was recorded on a Mingograf 34. Convulsions were recorded manually with an electronic marker on one channel of the Mingograf. Only "primary" arrhythmias occurring during the first 60 seconds have been analyzed to avoid confusion with late arrhythmias occurring secondary to respiratory arrest or cardiovascular collapse.

[6] = background statement; cited from earlier work
tissue [7] = assay: Tissue toxicity limits (Trypan blue test, threshold of tissue irritancy); format: in vivo
Description: The toxicity of the homologous series of N-alkylpipecolic acid-2,6-xylidides increases step wise and quickly with the lengthening of the alkyl chain. This is manifest from Table 1 set forth below, which compares racemic mixtures of alkyl homologues having from 1 to 5 carbon atoms.
*Trypan blue test; Hoppe et al. (1950), 39, 147-151 "Use of Trypan Blue
and Rabbit Eye Tests For Irritation", J. Amer. Pharm. Assoc. (Scient.
Ed.), the values are approximate threshold values of tissue irritancy.

in vivo = conditions: mouse, iv
[8] = system: guinea pig papillary muscle; conditions: Block and Covino, 1981, Courtney, 1984, Kotelko et al.; cited from earlier work
tissue [9] = conditions: in vivo, cited from earlier work
[10] = listed as 5; cited from earlier work

CCCN1CCCC[C@H]1C(=O)Nc1c(C)cccc1C [3 L, L-N-n-propylpipecolic acid-2,6-xylidide]
Analgesia-duration, intracutaneous wheals [1]: 220 ± 23 min | Analgesia-duration, finger blockade (ulnar volar nerves; Concentration 0.25%): 739 ± 46 min | Frequency (successful anesthesias of total performed) (ulnar volar nerves; Concentration 0.25%): 6/7 | Time of onset, finger blockade (ulnar volar nerves; Concentration 0.25%): 12 ± 2 min | Temperature Difference (T1 wheal vs T2 controls) (skin): -1.2 °C | T1 Intracutaneous Wheal temperature (skin): 30.0 °C | effect on temperature over the wheal (skin; comparison with lidocaine + adrenaline): lowers the temperature over its wheal to approximately the same extent as the combination of lidocaine with adrenaline | sudden cardiac collapse (pigs): not | Vmax depression ([2]; 10^-4 M for a short period): very depressed | attenuated excitability ([2]; 10^-4 M for a short period): no attenuated excitability could be detected | time to full recovery of Vmax ([2]; 10^-4 M, stimulus rate 1 Hz): 20 min | elimination from the tissue (washout) ([2]; 25 min. washout after 10^-4 M): readily eliminated from the tissue | recovery to 90% of drug-blocked channels [2]: 2048 ms | recovery from block ([2]; listed as LEA): recovers faster; also recorded: considerably faster | inhibition at 5 µM [3]: 13.8% | inhibition at 10 µM [3]: 9.6% | inhibition at 100 µM [3]: 8% | effect on force of contraction/contractility ([4]; listed as LEA): only moderately diminished; also recorded: very mild depressant actions | anesthetic effect [5]: optimal increase of anesthetic effects; also recorded: markedly superior

CCN(CC)CC(=O)Nc1c(C)cccc1C [Lidocaine, 2-diethylamino-2',6'-acetoxylidide]
Atrioventricular block, rats responding/total (conscious rats; 14 umol/kg i.v. bolus): 0/8 | Ventricular arrhythmias, rats responding/total (conscious rats; 14 umol/kg i.v. bolus): 0/8 | Atrioventricular block, rats responding/total (conscious rats; 20 umol/kg i.v. bolus): 0/8 | Ventricular arrhythmias, rats responding/total (conscious rats; 20 umol/kg i.v. bolus): 0/8 | Atrioventricular block, rats responding/total (conscious rats; 28 umol/kg i.v. bolus): 3/8 | Ventricular arrhythmias, rats responding/total (conscious rats; 28 umol/kg i.v. bolus): 0/8 | Atrioventricular block, rats responding/total (conscious rats; 40 umol/kg i.v. bolus): 4/8 | Ventricular arrhythmias, rats responding/total (conscious rats; 40 umol/kg i.v. bolus): 2/8 | Atrioventricular block, rats responding/total (conscious rats; 56 umol/kg i.v. bolus): 8/8 | Ventricular arrhythmias, rats responding/total (conscious rats; 56 umol/kg i.v. bolus): 1/8 | potency to induce atrioventricular conduction disturbances (conscious rats): least potent | block of channels; fast component not measurable ([2]; 10 uM): virtually all channels were blocked | recovery to 90% of drug-blocked channels [2]: 308 ms | potency on cardiac sodium channels [2]: lowest potency | recovery from block [2]: considerably faster | local anesthetic effect duration for epidural use [6]: too short for epidural use

CCCCN1CCCCC1C(=O)Nc1c(C)cccc1C (racemic) [4 R, N--n-butylpipecolic acid-2,6-xylidide]
Tissue toxicity limits in % (tissue [7]; Trypan blue test, approximate threshold values of tissue irritancy, racemate): 0.75% | LD50 (in vivo; 50% mortality of mice, racemate): 7.8 mg/kg | Analgesia-duration, intracutaneous wheals [1]: 118 ± 15 min | Analgesia-duration, finger blockade (ulnar volar nerves; Concentration 0.25%): 388 ± 50 min | Frequency (successful anesthesias of total performed) (ulnar volar nerves; Concentration 0.25%): 15/20 | Time of onset, finger blockade (ulnar volar nerves; Concentration 0.25%): 9 ± 2 min | Temperature Difference (T1 wheal vs T2 controls) (skin): -0.6 °C | T1 Intracutaneous Wheal temperature (skin): 31.5 °C | potency to induce atrioventricular conduction disturbances (conscious rats): most potent | death in ventricular fibrillation (pigs; 4 mg intracoronary, eight pigs): Two animals died in ventricular fibrillation | ventricular fibrillation (VF), time after injection (pigs; 4 mg intracoronary, listed as bupivacaine): ≤ 33 s | sudden cardiac collapse (pigs): occurred | affinity for the activated and inactivated channels [2]: very high affinity | recovery to 90% of drug-blocked channels [2]: 3561 ms | potency on cardiac sodium channels [2]: highest | recovery from block [2]: very slow | inhibition at 5 µM [3]: 45.1% | inhibition at 10 µM [3]: 41.7% | effect on force of contraction/contractility [4]: pronounced depressant action | negative inotropic effect [8]: potent negative inotropic effect

CCN1CCCCC1C(=O)Nc1c(C)cccc1C (stereo not drawn) [2 R, N--ethylpipecolic acid-2,6-xylidide]
Tissue toxicity limits in % (tissue [7]; in vivo): 3.0% | LD50 (in vivo; read-out: LD50 I.v. (intravenous)): 21 mg/kg | Analgesia-duration, finger blockade (ulnar volar nerves; Concentration 0.5%): 123 ± 19 min | Frequency (successful anesthesias of total performed) (ulnar volar nerves; Concentration 0.5%): 12/12 | Time of onset, finger blockade (ulnar volar nerves; Concentration 0.5%): 10 ± 1 min

CCCCCN1CCCCC1C(=O)Nc1c(C)cccc1C (stereo not drawn) [5 R, N--n-pentylpipecolic acid-2,6-xylidide]
tissue irritation (tissue [9]): irritating | tissue irritation (tissue [9]; listed as 5): too irritating against tissue | solubility in water [10]: slightly soluble
